Data: PubChem BioAssay AID248 (DTP/NCI, 2004)
Values joined by “and” are separate entries in the source; they are usually repeats but may differ in a detail not shown here. Equal entries are not always repeated. Toxic doses and inconclusive results are not listed. No stated cut-off is given here; in the data, active means T/C of 150% or more; inactive means T/C below 125%.

Tested on: L1210 leukemia ip in BDF1 mice, survival T/C
Assay: NCI In Vivo Anticancer Drug Screen. Data for tumor model L1210 Leukemia (intraperitoneal) in B6D2F1 (BDF1) mice
Conditions: endpoint: mean survival time, higher = longer survival
How it was run: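 Mice bearing the transplanted tumor received compound or vehicle. Survival of the treated group was divided by that of the vehicle-treated control group to give the ratio.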

[1] = dose: 100.0 mg/kg/injection, schedule: Q01DX009 (ip), vehicle: Klucel (hydroxypropylcellulose) (HPC)
[2] = dose: 200.0 mg/kg/injection, schedule: Q01DX009 (ip), vehicle: Klucel (hydroxypropylcellulose) (HPC)
[3] = dose: 400.0 mg/kg/injection, schedule: Q01DX009 (ip), vehicle: Klucel (hydroxypropylcellulose) (HPC)
[4] = dose: 50.0 mg/kg/injection, schedule: Q01DX001 (ip), vehicle: carboxymethylcellulose (CMC)
[5] = dose: 100.0 mg/kg/injection, schedule: Q01DX001 (ip), vehicle: carboxymethylcellulose (CMC)
[6] = dose: 200.0 mg/kg/injection, schedule: Q01DX001 (ip), vehicle: carboxymethylcellulose (CMC)
[7] = dose: 50.0 mg/kg/injection, schedule: Q01DX009 (ip), vehicle: Klucel (hydroxypropylcellulose) (HPC)
[8] = dose: 100.0 mg/kg/injection, schedule: Q04DX003 (ip), vehicle: Klucel (hydroxypropylcellulose) (HPC)
[9] = dose: 400.0 mg/kg/injection, schedule: Q01DX001 (ip), vehicle: carboxymethylcellulose (CMC)
[10] = dose: 100.0 mg/kg/injection, schedule: Q01DX009 (ip), vehicle: saline with Tween-80
[11] = dose: 200.0 mg/kg/injection, schedule: Q01DX009 (ip), vehicle: saline with Tween-80

Measured: T/C

C[N+](C)(C)CCCC#CC[N+]1(C)CCOCC1
active: dose: 8.4 mg/kg/injection, schedule: Q01DX009 (ip), vehicle: saline 151 % of control | dose: 14.0 mg/kg/injection, schedule: Q01DX009 (ip), vehicle: saline 197 % of control | dose: 65.0 mg/kg/injection, schedule: Q07DX009 (ip), vehicle: saline 157 % of control | dose: 108.0 mg/kg/injection, schedule: Q07DX009 (ip), vehicle: saline 190 % of control | dose: 180.0 mg/kg/injection, schedule: Q07DX009 (ip), vehicle: saline 177 % of control
inactive: dose: 39.0 mg/kg/injection, schedule: Q01DX009 (ip), vehicle: saline 96 % of control | dose: 300.0 mg/kg/injection, schedule: Q07DX009 (ip), vehicle: saline 123 % of control

Cc1cccc(NC(=O)Oc2ccc(Nc3ccccc3)cc2)c1
inactive: [1] 96 % of control | [2] 102 % of control | [3] 98 % of control

COc1cccc(C2N(Cc3ccc(N(CCCl)CCCl)cc3C)CCCN2Cc2ccc(N(CCCl)CCCl)cc2C)c1O
inactive: [4] 116 % of control | [5] 120 % of control | [6] 100 % of control

CCCCCCCCCCN=C(N)N/C(N)=N/S(=O)(=O)c1ccc(OCCC)cc1
inactive: dose: 100.0 mg/kg/injection, schedule: Q04DX002 (ip), vehicle: saline with Tween-80 100 % of control | dose: 200.0 mg/kg/injection, schedule: Q04DX002 (ip), vehicle: saline with Tween-80 110 % of control | dose: 400.0 mg/kg/injection, schedule: Q04DX002 (ip), vehicle: saline with Tween-80 107 % of control

CC(=O)C(C#N)c1ccccc1 (stereo not drawn)
inactive: dose: 25.0 mg/kg/injection, schedule: Q01DX009 (ip), vehicle: Klucel (hydroxypropylcellulose) (HPC) 98 % of control | dose: 25.0 mg/kg/injection, schedule: Q04DX003 (ip), vehicle: Klucel (hydroxypropylcellulose) (HPC) 100 % of control | [7] 96 % of control | dose: 50.0 mg/kg/injection, schedule: Q04DX003 (ip), vehicle: Klucel (hydroxypropylcellulose) (HPC) 100 % of control | [8] 97 % of control

CCCCCCCCCCCCOc1ccc(/C(=N\N=C(N)N)c2ccccc2)c(O)c1
inactive: dose: 15.0 mg/kg/injection, schedule: Q01DX Z (ip), vehicle: saline 91 % of control | dose: 30.0 mg/kg/injection, schedule: Q01DX Z (ip), vehicle: saline 89 % of control | dose: 120.0 mg/kg/injection, schedule: Q01DX Z (ip), vehicle: saline 92 % of control | dose: 120.0 mg/kg/injection, schedule: Q01DX Z (oral), vehicle: saline 102 % of control | dose: 240.0 mg/kg/injection, schedule: Q01DX Z (ip), vehicle: saline 103 % of control | dose: 240.0 mg/kg/injection, schedule: Q01DX Z (oral), vehicle: saline 102 % of control | dose: 480.0 mg/kg/injection, schedule: Q01DX Z (ip), vehicle: saline 110 % of control | dose: 480.0 mg/kg/injection, schedule: Q01DX Z (oral), vehicle: saline 95 % of control | dose: 960.0 mg/kg/injection, schedule: Q01DX Z (oral), vehicle: saline 101 % of control

O=[N+]([O-])c1ccc(C[n+]2ccc3ccccc3c2)cc1
inactive: dose: 12.5 mg/kg/injection, schedule: Q01DX009 (ip), vehicle: saline 96 % of control | dose: 12.5 mg/kg/injection, schedule: Q04DX003 (ip), vehicle: saline 97 % of control | dose: 25.0 mg/kg/injection, schedule: Q01DX009 (ip), vehicle: saline 95 % of control | dose: 25.0 mg/kg/injection, schedule: Q04DX003 (ip), vehicle: saline 92 % of control | dose: 50.0 mg/kg/injection, schedule: Q01DX009 (ip), vehicle: saline 101 % of control | dose: 50.0 mg/kg/injection, schedule: Q04DX003 (ip), vehicle: saline 92 % of control

ClC(Cl)(c1ccccc1)C1(c2ccccc2)CC1
inactive: dose: 75.0 mg/kg/injection, schedule: Q01DX001 (ip), vehicle: acetone 107 % of control | dose: 150.0 mg/kg/injection, schedule: Q01DX001 (ip), vehicle: acetone 109 % of control

CCCCCCCCCCCCCC(=O)N(CCCC)CCCC
inactive: dose: 50.0 mg/kg/injection, schedule: Q01DX009 (ip), vehicle: carboxymethylcellulose (CMC) 98 % of control and 90 % of control | [5] 94 % of control | dose: 100.0 mg/kg/injection, schedule: Q04DX003 (ip), vehicle: carboxymethylcellulose (CMC) 95 % of control | [6] 93 % of control | dose: 200.0 mg/kg/injection, schedule: Q04DX003 (ip), vehicle: carboxymethylcellulose (CMC) 92 % of control | [9] 98 % of control | dose: 400.0 mg/kg/injection, schedule: Q01DX009 (ip), vehicle: carboxymethylcellulose (CMC) 95 % of control and 104 % of control | dose: 400.0 mg/kg/injection, schedule: Q04DX003 (ip), vehicle: carboxymethylcellulose (CMC) 96 % of control

COc1ccc(-c2[nH]c3ccccc3c2-c2ccc(OC)cc2)cc1
inactive: dose: 100.0 mg/kg/injection, schedule: Q01DX001 (ip), vehicle: saline 89 % of control | dose: 200.0 mg/kg/injection, schedule: Q01DX001 (ip), vehicle: saline 89 % of control | dose: 400.0 mg/kg/injection, schedule: Q01DX001 (ip), vehicle: saline 95 % of control

NN(c1ccccc1)c1ccc2ccccc2c1
inactive: [7] 115 % of control | [1] 100 % of control | [8] 93 % of control | [2] 103 % of control | dose: 200.0 mg/kg/injection, schedule: Q04DX003 (ip), vehicle: Klucel (hydroxypropylcellulose) (HPC) 93 % of control | dose: 400.0 mg/kg/injection, schedule: Q04DX003 (ip), vehicle: Klucel (hydroxypropylcellulose) (HPC) 86 % of control

CN(C(=O)Oc1ccccc1)c1ccc(S(=O)(=O)F)cc1
inactive: dose: 100.0 mg/kg/injection, schedule: Q01DX001 (ip), vehicle: saline with Tween-80 104 % of control | dose: 200.0 mg/kg/injection, schedule: Q01DX001 (ip), vehicle: saline with Tween-80 96 % of control | dose: 400.0 mg/kg/injection, schedule: Q01DX001 (ip), vehicle: saline with Tween-80 98 % of control

O=C(N/C=C/NC(=O)Oc1c(I)cc(I)cc1I)Oc1c(I)cc(I)cc1I
inactive: [1] 92 % of control | [2] 100 % of control | [3] 102 % of control

C=CCNC(=S)Nc1ncn[nH]1
inactive: dose: 75.0 mg/kg/injection, schedule: Q01DX001 (ip), vehicle: carboxymethylcellulose (CMC) 103 % of control | dose: 150.0 mg/kg/injection, schedule: Q01DX001 (ip), vehicle: carboxymethylcellulose (CMC) 104 % of control | dose: 300.0 mg/kg/injection, schedule: Q01DX001 (ip), vehicle: carboxymethylcellulose (CMC) 90 % of control

CC(=O)CSc1ccc(C(C)(C)C)cc1
inactive: [5] 102 % of control | [6] 96 % of control | [9] 105 % of control

c1ccc(C2=Nc3ccccc3C(c3ccccc3)=Nc3ccccc32)cc1
inactive: [10] 89 % of control | [11] 97 % of control | dose: 400.0 mg/kg/injection, schedule: Q01DX009 (ip), vehicle: saline with Tween-80 89 % of control

Nc1ccc([N+](=O)[O-])cc1C(O)(C(F)(F)F)C(F)(F)F (tested in a mixture with another compound)
inactive: [10] 101 % of control | dose: 100.0 mg/kg/injection, schedule: Q04DX003 (ip), vehicle: saline with Tween-80 101 % of control | [11] 94 % of control | dose: 200.0 mg/kg/injection, schedule: Q04DX003 (ip), vehicle: saline with Tween-80 100 % of control | dose: 400.0 mg/kg/injection, schedule: Q04DX003 (ip), vehicle: saline with Tween-80 97 % of control

CC[Si](CC)(CC)N1CC1
inactive: dose: 12.5 mg/kg/injection, schedule: Q01DX001 (ip), vehicle: carboxymethylcellulose (CMC) 106 % of control | dose: 25.0 mg/kg/injection, schedule: Q01DX001 (ip), vehicle: carboxymethylcellulose (CMC) 92 % of control | [4] 92 % of control
